Test results reported in patent publication US8980226B2, “Aerosolized fosfomycin/aminoglycoside combination for the treatment of bacterial respiratory infections” (Gilead Sciences, Inc., priority 2004, dated 2015).

Tested on: P. aeruginosa ATCC 27853
Test: MBC/MIC, broth microdilution
Format: cell-based
Settings: aminoglycoside alone
Description: “Minimal bactericidal concentration (MBC)” means the lowest concentration of antibiotic that results in ≧3 Log10 of bacterial killing.
The MICs of amikacin, arbekacin, dibekacin, gentamicin, kanamycin, netilimicin, neomycin, streptomycin, and tobramycin alone were determined for P. aeruginosa ATCC 27853 by the broth-microdilution method according to NCCLS standards (NCCLS, 2003). E. coli ATCC 25922 and S. aureus ATCC 29213 were used as quality control stains. Bacterial strains were streaked onto blood agar plates, and incubated at 35° C. for 18 hours. Two to three bacterial colonies from the overnight cultures were inoculated into 3 mL of sterile normal saline, vortexed briefly, and adjusted to a 0.5 McFarland standard (NCCLS, 2003). The bacterial suspension was diluted 1:100 in cation-adjusted Mueller-Hinton broth (hereafter referred to as CAMHB). Fifty microliters of bacterial inoculum (approximately 2×10^5 CFU/mL) was pipeted into individual wells of 96-well plates containing 50 μl of CAMHB (Remel, Lenexa, Kanas) supplemented with 2-fold dilutions of antibiotics ranging in concentration from 0.125 μg/mL to 128 μg/mL. The MIC was defined as the lowest concentration of antibiotic (s) that prevented visible growth after incubation at 35° C. for 18-24 hours.
The MBCs of fosfomycin, amikacin, arbekacin, dibikacin, gentamicin, kanamycin B, netilimicin, neomycin, streptomycin, or tobramycin alone for P. aeruginosa ATCC 27853, E. coli ATCC 25922, and S. aureus ATCC 29213 were determined by the broth microdilution method according to NCCLS standards (NCCLS, 1999). Bacterial strains were streaked onto blood agar plates and incubated at 35° C. for 18-24 hours. Two to three bacterial colonies from the overnight cultures were inoculated into 3 mL of sterile normal saline, vortexed briefly, and adjusted to a 0.5 McFarland standard (NCCLS, 2003). Fifty microliters of bacterial inoculum (approximately 2×10^5 CFU/mL) was pipeted into individual wells of 96-well plates containing 50 μl of CAMHB (Remel, Lenexa, Kanas) supplemented with 2-fold dilutions of antibiotics ranging in concentration from 0.125 μg/mL to 128 μg/mL. Plates were incubated at 35° C. for 18-24 hours and MIC determined as described in Example 5, Method C. The contents of wells showing no growth (MIC and above) were mixed with a pipetor and duplicate 10 μl samples spread onto blood agar plates. Culture plates were incubated at 35° C. for 18-24 hours and the number of bacterial colonies on each plate enumerated manually. Rejection values were determined by NCCLS methods which considers the final inoculum size, single or double sampling, pipetting error, and the Poisson distribution of sample responses (NCCLS, 1999). […] The MBC was defined as the ≧3 Log10 decrease in CFU/mL of the original inoculum as described by NCCLS standards (NCCLS, 1999). The MBC/MIC ratios were calculated by dividing the MBC by the MIC.

Compound	MBC/MIC Aminoglycoside
[H]/N=C(/N)N[C@H]1[C@H](O)[C@@H](O)[C@H](O[C@@H]2O[C@@H](C)[C@](O)(C=O)[C@H]2O[C@@H]2O[C@@H](CO)[C@H](O)[C@@H](O)[C@@H]2NC)[C@@H](N/C(N)=N\[H])[C@@H]1O [Streptomycin, streptomycin]	4
CCN[C@@H]1C[C@H](N)[C@@H](O[C@H]2OC(CN)=CC[C@H]2N)[C@H](O)[C@H]1O[C@H]1OC[C@](C)(O)[C@H](NC)[C@H]1O [Netilimicin, netilmicin]	1
neomycin	2
NC[C@@H]1CC[C@@H](N)[C@@H](O[C@H]2[C@H](O)[C@@H](O[C@H]3O[C@H](CO)[C@@H](O)[C@H](N)[C@H]3O)[C@H](N)C[C@@H]2N)O1 [Dibekacin, dibekacin]	1
NCC[C@H](O)C(=O)N[C@@H]1C[C@H](N)[C@@H](O[C@H]2O[C@H](CN)CC[C@H]2N)[C@H](O)[C@H]1O[C@H]1O[C@H](CO)[C@@H](O)[C@H](N)[C@H]1O [Arbekacin, arbekacin]	1
NCC[C@H](O)C(=O)N[C@@H]1C[C@H](N)[C@@H](O[C@H]2O[C@H](CN)[C@@H](O)[C@H](O)[C@H]2O)[C@H](O)[C@H]1O[C@H]1O[C@H](CO)[C@@H](O)[C@H](N)[C@H]1O [Amikacin, amikacin]	2
gentamicin	2
